What was measured:
[1] = Adsorption of 125I-marked desmopressin to tubes of polystyrene, polypropene and glass; type: physicochemical; details: 24 h, ambient temperature
Procedure: Sterile aqueou solutions of desmopressin marked with ^125 I (appr. 10,000 CPM/ml) containing benzalkonium chloride+saline, chlorobutanol+saline, or saline only, were all incubated in tubes of polystyrene, polypropene and glass for 24 h at ambient temperature.

[2] = aqueous solution of desmopressin; cited from earlier work

Compound: NC(=O)CC[C@@H]1NC(=O)[C@H](Cc2ccccc2)NC(=O)[C@H](Cc2ccc(O)cc2)NC(=O)CCSSC[C@@H](C(=O)N2CCC[C@H]2C(=O)N[C@H](CCCN=C(N)N)C(=O)NCC(N)=O)NC(=O)[C@H](CC(N)=O)NC1=O [desmopressin, 1-deamino-8-D-arginine vasopressin]
- amount of desmopressin recovered from the plastic tubes ([1]; preservative-free solution (saline only), plastic tubes): about half
- adsorption of desmopressin to tubes ([1]; solution containing benzalkonium chloride + saline): insignificant adsorption
- adsorption of desmopressin to tubes ([1]; solution containing chlorobutanol + saline): insignificant adsorption
- storage temperature required for the aqueous solution [2]: ≤ 8 °C

Reference: US5482931A, “Stabilized pharmaceutical peptide compositions” (Ferring AB, priority 1993, dated 1996)
